Test systems include Escherichia coli 55B5; Escherichia coli UB1005; Pseudomonas aeruginosa; Salmonella typhimurium; Candida albicans; Pseudomonas fluorescens; Ralstonia pickettii; Staphylococcus aureus; Bacillus subtilis C971; Escherichia coli DC2.
Holding throughout (assay): ≥ marks a high value that may be exact or a test limit, other limits are often not marked, values filed in µg/mL are converted to µM
Experiment [1] deals with Achromobacter xylosoxidans.
For experiment [2], the system named is Pseudomonas aeruginosa ATCC 9027.
The subject of experiment [3] is Pseudomonas aeruginosa M1251.
In experiment [4] the test system is Pseudomonas aeruginosa M1426.
Experiment [5] deals with Pseudomonas aeruginosa M76.
The test system of experiment [6] is Pseudomonas aeruginosa M917.
The subject of experiment [7] is Pseudomonas aeruginosa PAO1.
Experiment [8] concerns Pseudomonas aeruginosa R70.
Experiment [9] has as its system Salmonella enterica serovar Typhimurium.
Experiment [10] concerns Staphylococcus aureus ATCC 6538.
Experiment [11] deals with Stenotrophomonas maltophilia.
For experiment [12], the system named is Corynebacterium xerosis C875.
Experiment [13] concerns Enterococcus faecalis C625.
For experiment [14], the system named is Pseudomonas aeruginosa H187.
In experiment [15] the test system is Pseudomonas aeruginosa H188.
Experiment [16] relates to Salmonella typhimurium C587.
For experiment [17], the system named is Salmonella typhimurium C610.
Experiment [18] relates to Staphylococcus aureus ATCC 25923.
The subject of experiment [19] is Staphylococcus aureus SAP 0017.
In experiment [20] the test system is Staphylococcus epidermidis C621.
Experiment [21] deals with Bacillus subtilis KCCM 11495.
Experiment [22] has as its system Escherichia coli KCCM 11569.

Each structure is given as a SMILES string. In brackets after ≈: the same amount, converted by molar mass. A value given as a limit tells only on which side of the number the result lay.

On to `CC[C@H](C)[C@H](NC(=O)[C@H](C)N)C(=O)N[C@@H](Cc1cnc[nH]1)C(=O)N[C@@H](CCCCN)C(=O)N[C@@H](CC(C)C)C(=O)N[C@@H](C)C(=O)N[C@@H](Cc1cnc[nH]1)C(=O)N[C@@H](CCCCN)C(=O)N[C@@H](CC(C)C)C(=O)N[C@@H](CC(C)C)C(=O)N1CCC[C@H]1C(=O)N[C@@H](CCCCN)C(=O)N[C@H](C(=O)N[C@@H](CC(C)C)C(=O)N[C@@H](CCCN=C(N)N)C(=O)N[C@@H](C)C(=O)N[C@H](C(=O)N[C@@H](CCCCN)C(=O)N[C@@H](CCCCN)C(=O)N[C@@H](CC(C)C)C(=O)N[C@@H](C)C(=O)N[C@@H](CC(N)=O)C(=O)O)C(C)C)[C@@H](C)O` [AIHKLAHKLLPKTLRAVKKLAN], for which the MIC (commonly the lowest concentration found to suppress growth) came out at 25 µM (≈ 61.6 µg/mL) against Escherichia coli 55B5, 20.5 µM (≈ 50.5 µg/mL) against Escherichia coli UB1005, 20.5 µM (≈ 50.5 µg/mL) against Pseudomonas aeruginosa and 15.5 µM (≈ 38.2 µg/mL) in the experiment on Salmonella typhimurium.
In the case of `CC[C@H](C)[C@H](NC(=O)[C@H](C)N)C(=O)N[C@@H](Cc1cnc[nH]1)C(=O)N[C@@H](CCCCN)C(=O)N[C@@H](CC(C)C)C(=O)N[C@@H](C)C(=O)N[C@@H](Cc1cnc[nH]1)C(=O)N[C@@H](CCCCN)C(=O)N[C@H](C(=O)N[C@@H](CC(C)C)C(=O)N[C@@H](CCCCN)C(=O)N[C@@H](CCCCN)C(=O)N[C@H](C(=O)N[C@@H](CC(C)C)C(=O)N[C@@H](CCCN=C(N)N)C(=O)N[C@@H](C)C(=O)N[C@H](C(=O)N[C@@H](CCCCN)C(=O)N[C@@H](CCCCN)C(=O)N[C@@H](CC(C)C)C(=O)N[C@@H](C)C(=O)N[C@@H](CC(N)=O)C(=O)O)C(C)C)[C@@H](C)O)[C@@H](C)O` [AIHKLAHKTLKKTLRAVKKLAN], the MIC was determined as 14.5 µM (≈ 36 µg/mL) in the experiment with Escherichia coli 55B5, 15.5 µM (≈ 38.5 µg/mL) in the experiment with Escherichia coli UB1005, 12.5 µM (≈ 31 µg/mL) with Pseudomonas aeruginosa and 10.5 µM (≈ 26.1 µg/mL) against Salmonella typhimurium.
Turning to `CC(C)C[C@H](NC(=O)[C@H](CCCCN)NC(=O)[C@H](CCCCN)NC(=O)[C@H](C)NC(=O)[C@H](CC(C)C)NC(=O)[C@H](CCCCN)NC(=O)[C@H](CCCCN)NC(=O)[C@H](CC(C)C)NC(=O)[C@H](CCCCN)NC(=O)[C@H](CCCCN)NC(=O)[C@H](C)NC(=O)[C@H](CC(C)C)NC(=O)[C@H](CCCCN)NC(=O)[C@H](CCCCN)NC(=O)[C@H](C)NC(=O)[C@@H](N)Cc1ccccc1)C(=O)N[C@@H](C)C(=O)N[C@@H](CCCCN)C(=O)O` [FAKKLAKKLKKLAKKLAK], the MIC in experiment [1] came to 3.89 µM (≈ 8 µg/mL); against Candida albicans it was 15.6 µM (≈ 32 µg/mL); against Escherichia coli UB1005, 0.973 µM (≈ 2 µg/mL); in experiment [2], 7.3 µM (≈ 15 µg/mL); in experiment [3], 3.89 µM (≈ 8 µg/mL); in [4], 3.89 µM (≈ 8 µg/mL). In addition, the minimum inhibitory concentration (MIC) is 3.89 µM (≈ 8 µg/mL) in experiment [5]; 15.6 µM (≈ 32 µg/mL) in experiment [6]; 3.89 µM (≈ 8 µg/mL) in experiment [7]; 0.973 µM (≈ 2 µg/mL) in experiment [8]; 7.78 µM (≈ 16 µg/mL) in the experiment on Pseudomonas aeruginosa; 3.89 µM (≈ 8 µg/mL) in the experiment on Pseudomonas fluorescens. Besides, the MIC was 1.95 µM (≈ 4 µg/mL) in the experiment on Ralstonia pickettii; 3.89 µM (≈ 8 µg/mL) in experiment [9]; 7.3 µM (≈ 15 µg/mL) in experiment [10]; greater than 62.3 µM in the experiment on Staphylococcus aureus; 0.486 µM (≈ 1 µg/mL) in experiment [11].
With `CC(C)C[C@H](NC(=O)[C@H](C)NC(=O)[C@H](CCCCN)NC(=O)[C@H](CCCCN)NC(=O)[C@H](CC(C)C)NC(=O)[C@H](C)NC(=O)[C@H](CCCCN)NC(=O)[C@H](CCCCN)NC(=O)[C@H](CC(C)C)NC(=O)[C@H](CCCCN)NC(=O)[C@H](CCCCN)NC(=O)[C@H](CC(C)C)NC(=O)[C@H](C)NC(=O)[C@H](CCCCN)NC(=O)[C@H](CC(C)C)NC(=O)[C@H](C)NC(=O)[C@@H](N)Cc1ccccc1)C(N)=O` [FALKALKKLKKALKKAL], the minimum inhibitory concentration (MIC) is no less than 66.9 µM in [1]; 8.37 µM (≈ 16 µg/mL) in the experiment with Candida albicans; 2.09 µM (≈ 4 µg/mL) with Escherichia coli UB1005; 4.18 µM (≈ 8 µg/mL) in experiment [3]; 8.37 µM (≈ 16 µg/mL) in [4]; 8.37 µM (≈ 16 µg/mL) in experiment [5]. Also, the MIC in experiment [6] came to 8.37 µM (≈ 16 µg/mL); in experiment [7], 4.18 µM (≈ 8 µg/mL); in experiment [8] it was 2.09 µM (≈ 4 µg/mL); against Pseudomonas aeruginosa, 4.18 µM (≈ 8 µg/mL); in the experiment with Pseudomonas fluorescens, 2.09 µM (≈ 4 µg/mL); with Ralstonia pickettii, 2.09 µM (≈ 4 µg/mL). Further, the MIC amounted to 4.18 µM (≈ 8 µg/mL) in [9], 4.18 µM (≈ 8 µg/mL) with Staphylococcus aureus and 2.09 µM (≈ 4 µg/mL) in experiment [11].
With `CC[C@H](C)[C@H](NC(=O)[C@H](C)NC(=O)[C@H](CCCCN)NC(=O)[C@H](CC(C)C)NC(=O)[C@H](C)NC(=O)[C@@H](NC(=O)[C@H](Cc1cnc[nH]1)NC(=O)[C@H](CC(C)C)NC(=O)[C@@H](NC(=O)[C@@H](NC(=O)[C@H](CCCCN)NC(=O)CNC(=O)[C@H](C)NC(=O)[C@H](CO)NC(=O)[C@H](CCCCN)NC(=O)[C@H](Cc1ccccc1)NC(=O)[C@@H](NC(=O)[C@H](CCCCN)NC(=O)[C@H](CC(C)C)NC(=O)[C@H](Cc1ccccc1)NC(=O)[C@H](CO)NC(=O)[C@H](CCCCN)NC(=O)[C@H](Cc1c[nH]c2ccccc12)NC(=O)[C@H](CCCCN)NC(C)=O)[C@@H](C)O)[C@@H](C)O)C(C)C)[C@@H](C)O)C(=O)N[C@@H](CO)C(=O)N[C@@H](CO)C(N)=O` [KWKSFLKTFKSAGKTVLHTALKAISS], the MIC with Bacillus subtilis C971 was 0.695 µM (≈ 2.03 µg/mL); in experiment [12], 0.695 µM (≈ 2.03 µg/mL); in experiment [13], 17.6 µM (≈ 51.5 µg/mL); in the experiment on Escherichia coli DC2 it was 0.869 µM (≈ 2.54 µg/mL); with Escherichia coli UB1005, 0.869 µM (≈ 2.54 µg/mL); in [14] it was 2.22 µM (≈ 6.49 µg/mL). For the same molecule, the MIC is 3.51 µM (≈ 10.2 µg/mL) in experiment [15]; 1.74 µM (≈ 5.07 µg/mL) in experiment [16]; 0.869 µM (≈ 2.54 µg/mL) in experiment [17]; 8.82 µM (≈ 25.8 µg/mL) in experiment [18]; 3.51 µM (≈ 10.2 µg/mL) in experiment [19]; 1.11 µM (≈ 3.25 µg/mL) in [20].
Take `CC[C@H](C)[C@H](NC(=O)[C@H](C)NC(=O)[C@H](CCCCN)NC(=O)[C@H](CC(C)C)NC(=O)[C@H](C)NC(=O)[C@@H](NC(=O)[C@H](Cc1cnc[nH]1)NC(=O)[C@H](CC(C)C)NC(=O)[C@@H](NC(=O)[C@@H](NC(=O)[C@H](CCCCN)NC(=O)[C@@H](NC(=O)[C@H](C)NC(=O)[C@@H](NC(=O)[C@H](CCCCN)NC(=O)[C@H](Cc1ccccc1)NC(=O)[C@@H](NC(=O)[C@H](CCCCN)NC(=O)[C@H](CC(C)C)NC(=O)[C@H](Cc1ccccc1)NC(=O)[C@H](CO)NC(=O)[C@H](CCCCN)NC(=O)[C@H](Cc1c[nH]c2ccccc12)NC(=O)[C@H](CCCCN)NC(C)=O)[C@@H](C)O)C(C)C)C(C)C)[C@@H](C)O)C(C)C)[C@@H](C)O)C(=O)N[C@@H](CO)C(=O)N[C@@H](CO)C(N)=O` [KWKSFLKTFKVAVKTVLHTALKAISS]: the MIC stood at 0.853 µM (≈ 2.54 µg/mL) against Bacillus subtilis C971; 0.443 µM (≈ 1.32 µg/mL) in experiment [12]; 6.89 µM (≈ 20.5 µg/mL) in experiment [13]; 1.36 µM (≈ 4.06 µg/mL) in the experiment with Escherichia coli DC2; 2.18 µM (≈ 6.49 µg/mL) in the experiment with Escherichia coli UB1005; 3.44 µM (≈ 10.2 µg/mL) in [14]. Also, the MIC is 6.89 µM (≈ 20.5 µg/mL) in experiment [15]; 10.9 µM (≈ 32.4 µg/mL) in experiment [16]; 1.71 µM (≈ 5.07 µg/mL) in [17]; 5.46 µM (≈ 16.2 µg/mL) in experiment [18]; 4.33 µM (≈ 12.9 µg/mL) in experiment [19]; 2.73 µM (≈ 8.11 µg/mL) in [20].
As for `CC(C)C[C@H](NC(=O)CNC(=O)[C@H](Cc1cnc[nH]1)NC(=O)[C@H](Cc1cnc[nH]1)NC(=O)[C@H](CC(C)C)NC(=O)[C@H](CC(C)C)NC(=O)[C@H](C)NC(=O)[C@H](CC(N)=O)NC(=O)[C@H](CC(C)C)NC(=O)[C@@H](N)Cc1c[nH]c2ccccc12)C(=O)N[C@@H](CC(N)=O)C(=O)N[C@@H](CS)C(=O)N[C@@H](C)C(N)=O` [WLNALLHHGLNCA], the MIC in [21] and in experiment [22] was no less than 43.8 µM each time.

Values taken from DBAASP.
